Data on 3 compounds can be found in US9387219B2, “Edible composition” (Conopco, Inc., priority 2011, dated 2016).

Data set [1] concerns the target T1, Human Lactase Phloridzin Hydrolase (hLPH) (Homo sapiens, UniProt P09848).
T1 construct: endogenous in cells; host or cells: Caco-2 cells held at confluence for 21 days; trans-membrane protein extract passed through a G-25 Sephadex spin column
Description: hLPH enzyme assay (glucoside hydrolysis by LPH extract from Caco-2 cells). Format: in vitro ADME. The settings on record: glucoside 1.0 mM, 1 hour at 37° C.; for μM substrate hydrolysed/hr: 10% LPH extract (Caco2 cell-line), pH 6.0; for Resistance to hydrolysis-% Q4G: relative to Q4G, 10% LPH extract. How it is done: Extracts were stored at −80° C. in 50 ul aliquots. Prior to use extracts were semi-purified, removing low molecular weight interfering components by passing through a small G-25 Sephadex 50-100 μl spin-column (Roche or ThermoFisher Scientific). 10 μl of semi-purified LPH extract was added to 90 μl of glucoside (1.0 mM final concentration) in 0.1 M maleate (Sigma) buffer, pH 6.0 and incubated for 60 minutes at 37° C. The reaction was terminated by addition of 200 μl 2M Tris (Sigma), pH 8.0. […] This allowed a full recovery of glucose which was measured using the Amplex® Red Glucose/Glucose Oxidase Assay. […] Fluorescence was read on a SpectraMax Gemini EM SN plate reader (Molecular Devices) (excitation. 530 nm and emission at 590 nm).

Data set [2] addresses T2, GLUT2 (Homo sapiens, UniProt P11168).
T2 construct: endogenous in cells; host or cells: differentiated Caco-2 cell monolayers (ATCC)
T2 sequence (P11168 1-524): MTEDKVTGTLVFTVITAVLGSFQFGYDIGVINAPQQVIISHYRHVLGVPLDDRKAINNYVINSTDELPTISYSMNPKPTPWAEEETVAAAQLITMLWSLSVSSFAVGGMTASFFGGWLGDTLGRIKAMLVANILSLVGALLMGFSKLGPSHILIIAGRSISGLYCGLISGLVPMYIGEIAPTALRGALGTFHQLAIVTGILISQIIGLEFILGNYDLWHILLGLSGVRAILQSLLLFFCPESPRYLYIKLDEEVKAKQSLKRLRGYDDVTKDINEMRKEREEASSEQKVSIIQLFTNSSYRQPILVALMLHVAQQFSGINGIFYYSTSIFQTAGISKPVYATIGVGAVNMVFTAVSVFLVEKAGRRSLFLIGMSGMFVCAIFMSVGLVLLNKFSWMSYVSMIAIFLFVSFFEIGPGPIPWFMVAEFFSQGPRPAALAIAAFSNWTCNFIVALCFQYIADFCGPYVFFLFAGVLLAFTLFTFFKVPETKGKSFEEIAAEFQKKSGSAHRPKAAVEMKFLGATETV
Description: Glucose transport inhibitor cell screening assay, 25 mM D-glucose for 30 minutes (GLUT2 inhibition). Format: cell-based. The settings on record: differentiated Caco-2 monolayer, 30 minutes, active at 150 uM. As to the method: (§1) Human epithelial colorectal adenocarcinoma (Caco-2) cells were obtained from the American Type Culture Collection (ATCC) and cultured in Growth Medium consisting of Dulbecco's modified Eagle's medium (containing Glutamax-1, 4.5 g/L D-glucose and 25 mM 4-(2-hydroxyethyl)-1-piperazine ethanesulphonic acid (Hepes) (Invitrogen)), 10% foetal bovine serum (Sigma), 1% non-essential amino acids (Invitrogen) and 1 mM sodium pyruvate (Sigma)). The cells were routinely passaged at approximately 80% confluence using TrypLE™ Express Stable Trypsin-Like Enzyme (Invitrogen) to detach the cells, and seeded at approximately 114 cells per mm^2 in fresh tissue culture flasks. Only cells between the passage numbers 45 and 49 were used for experiments.
(§2) Corning® HTS Transwell® 96 well permeable insert supports (Sigma) were collagen coated with 40 μl of 50 μg/ml rat tail collagen type I (BD Biosciences) in 0.02 M acetic acid for one hour at room temperature under sterile conditions. The inserts were washed twice in phosphate buffered saline (PBS (Invitrogen)) and the Caco-2 cells seeded into the inserts at 9.6×10^5 cell/ml (75 μl per insert) in Growth Medium and 30 ml of Growth Medium added to the feeder plate below. The cells were left to attach to the collagen matrix and form monolayers over 48 hours at 37° C., 5% CO2. Both inserts and feeder plate were washed in PBS and the cells incubated with BD Entero-STIM™ Enterocyte Differentiation Medium containing MITO+™ Serum Extender solution (both BD Biosciences), 75 μl per insert and 30 ml in the feeder plate, for a further 48 hours at 37° C., 5% CO2.
(§3) Differentiated cell monolayers were washed gently in Dulbecco's Phosphate Buffered Saline containing CaCl2 and MgCl2 (PBS(+) (Invitrogen)) and the inserts transferred to a new Corning® HTS Transwell®-96 well receiver plate (Sigma). The cells were incubated with fresh PBS(+) (75 μl per insert and 225 μl per well) for 60 minutes at 37° C., 5% CO2. The PBS(+) was gently aspirated and replaced with 75 μl per insert of either 5 mM D-glucose (Sigma)±test active or 25 mM D-glucose±test active in triplicate and 225 μl per well of PBS(+) quickly added to each well. The 5 mM glucose wells and the 25 mM glucose wells were incubated at 37° C., 5% CO2 for 15 minutes and 30 minutes, respectively. Details of all the actives tested are found in table 1. The cell inserts were transferred to a new receiver plate, the supernatant gently aspirated from the cells and replaced with 100 μl of 100 μM of Lucifer Yellow (Sigma) solution to confirm the integrity of the monolayers. 225 μl of PBS(+) was added to each well and incubated at 37° C., 5% CO2 for 1 hour. The cell inserts were then discarded and the permeability of the membranes to Lucifer Yellow checked by measuring the fluorescence of the samples at 485 nm (excitation) and 530 nm (emission) on a Spectramax Gemini EM fluorescence microplate reader.
(§4) The amount of glucose transported across the cell monolayers was measured using a glucose assay based on Invitrogen's Amplex Red Glucose/Glucose oxidase Assay Kit. Briefly, 50 μl of each test sample was transferred to a black sided/clear bottom 96-well plate (Greiner Bio-One) to which 100 μl of reaction buffer (0.5 μl 10 mM Ampliflu Red, 1 μl 10 U/ml Horse Radish peroxidase, 1 μl 100 U/ml glucose oxidase and 97.5 μl PBS (all Sigma)) was added. After 10 minutes incubation at room temperature, the fluorescence of the samples were measured at 530 nm (excitation) and 590 nm (emission) on a Spectramax Gemini EM fluorescence microplate reader and the glucose concentration extrapolated from a standard curve.
(§5) At higher D-glucose concentrations, the SGLT1 transporter becomes saturated and consequently the majority of glucose transport across the monolayer is driven by the low affinity, high capacity GLUT2 transporter that is targeted to the apical membrane only following an initial SGLT1-dependent transport of glucose.
(Caco-2 monolayers are a common model of the intestinal barrier.)

Data set [3] concerns the target T3, SGLT1 (Homo sapiens, UniProt P13866).
T3 construct: endogenous in cells; host or cells: differentiated Caco-2 cell monolayers (ATCC)
T3 sequence (P13866 1-664): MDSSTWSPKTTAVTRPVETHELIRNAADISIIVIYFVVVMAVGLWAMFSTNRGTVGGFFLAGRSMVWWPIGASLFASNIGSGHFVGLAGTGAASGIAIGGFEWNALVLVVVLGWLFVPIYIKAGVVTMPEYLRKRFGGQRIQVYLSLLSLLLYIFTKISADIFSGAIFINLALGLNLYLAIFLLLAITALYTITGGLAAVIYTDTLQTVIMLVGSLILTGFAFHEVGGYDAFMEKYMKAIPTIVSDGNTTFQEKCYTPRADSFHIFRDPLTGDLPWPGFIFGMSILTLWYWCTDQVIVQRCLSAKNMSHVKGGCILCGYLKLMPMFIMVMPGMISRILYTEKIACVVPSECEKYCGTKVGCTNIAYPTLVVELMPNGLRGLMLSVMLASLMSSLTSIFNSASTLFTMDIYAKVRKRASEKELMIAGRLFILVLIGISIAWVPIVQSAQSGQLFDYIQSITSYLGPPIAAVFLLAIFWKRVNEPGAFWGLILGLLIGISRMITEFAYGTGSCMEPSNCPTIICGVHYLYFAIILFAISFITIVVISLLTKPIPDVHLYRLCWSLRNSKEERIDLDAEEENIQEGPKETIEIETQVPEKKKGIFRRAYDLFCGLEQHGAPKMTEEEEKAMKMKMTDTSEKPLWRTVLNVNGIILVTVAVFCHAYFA
Description: Glucose transport inhibitor cell screening assay, 5 mM D-glucose for 15 minutes (SGLT1 inhibition). The settings on record: for SGLT1 inhibitory activity (in words): Caco-2 cell model; for SGLT1 inhibitory activity (in words) / % Glucose Transport inhibition 5 mM: 5 mM D-glucose; for Class (assigned class of transporter inhibited): assigned from % inhibition at 5 mM and 25 mM D-glucose in Caco-2 cells; for % Glucose Transport inhibition 5 mM: differentiated Caco-2 monolayer, 15 minutes, active at 300 uM. Format: cell-based. As to the method: as §1, §2, §3, §4, §5

Where “and” joins values, the source holds several entries; their conditions need not be identical. Equal values may be shown once.

T1 sequence (P09848 869-1927): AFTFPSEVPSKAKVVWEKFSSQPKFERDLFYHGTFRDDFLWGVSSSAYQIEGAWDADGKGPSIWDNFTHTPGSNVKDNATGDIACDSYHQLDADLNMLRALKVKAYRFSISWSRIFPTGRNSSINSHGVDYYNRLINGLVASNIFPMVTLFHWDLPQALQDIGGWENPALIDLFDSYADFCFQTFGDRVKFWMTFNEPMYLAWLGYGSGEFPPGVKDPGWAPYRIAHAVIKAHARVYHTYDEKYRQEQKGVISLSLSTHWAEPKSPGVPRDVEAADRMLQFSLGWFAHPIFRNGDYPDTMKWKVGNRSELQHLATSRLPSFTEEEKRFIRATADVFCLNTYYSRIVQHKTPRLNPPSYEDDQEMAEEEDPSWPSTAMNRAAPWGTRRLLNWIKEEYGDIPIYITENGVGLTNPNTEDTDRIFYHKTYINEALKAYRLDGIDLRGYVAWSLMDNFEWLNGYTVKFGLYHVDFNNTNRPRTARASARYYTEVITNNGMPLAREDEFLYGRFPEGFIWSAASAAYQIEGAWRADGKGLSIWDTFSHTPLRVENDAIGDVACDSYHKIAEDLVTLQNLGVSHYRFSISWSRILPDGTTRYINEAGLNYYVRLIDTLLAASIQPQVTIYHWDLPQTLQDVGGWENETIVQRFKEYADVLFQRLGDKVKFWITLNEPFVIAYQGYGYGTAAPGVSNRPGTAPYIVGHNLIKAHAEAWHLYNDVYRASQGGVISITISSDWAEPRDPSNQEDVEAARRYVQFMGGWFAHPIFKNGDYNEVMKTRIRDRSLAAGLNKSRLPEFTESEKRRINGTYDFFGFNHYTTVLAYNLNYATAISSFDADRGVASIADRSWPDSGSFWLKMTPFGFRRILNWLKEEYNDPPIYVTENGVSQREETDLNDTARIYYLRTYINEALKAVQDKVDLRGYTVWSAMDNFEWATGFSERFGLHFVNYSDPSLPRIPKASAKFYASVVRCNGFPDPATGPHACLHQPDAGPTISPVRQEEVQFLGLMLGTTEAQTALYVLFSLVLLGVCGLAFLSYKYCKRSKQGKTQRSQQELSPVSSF

Turning to `O=c1c(O)c(-c2ccc(O)cc2)oc2cc(O[C@@H]3O[C@H](CO)[C@@H](O)[C@H](O)[C@H]3O)cc(O)c12` [Kaempferol 7-O-glucoside], in data set [1], the μM substrate hydrolysed/hr is given as 0.618 μM substrate hydrolysed/hr and the “Resistance to hydrolysis-% Q4G” value is listed as 80.05%. The “% Glucose Transport inhibition 25 mM” value in data set [2] is 14.42%. In data set [3], the “SGLT1 inhibitory activity (in words)” value was “inhibition of SGLT1”, the “Class (assigned class of transporter inhibited)” value was “SGLT1” and the “% Glucose Transport inhibition 5 mM” value was 43.89%.
For the compound `O=c1cc(-c2ccc(O)c(O)c2)oc2cc(O[C@@H]3O[C@H](CO)[C@@H](O)[C@H](O)[C@H]3O)cc(O)c12` [Luteolin-7-glucoside], in data set [1], the μM substrate hydrolysed/hr is 0.814 μM substrate hydrolysed/hr and the “Resistance to hydrolysis-% Q4G” value worked out at 73.72%. Besides, the “% Glucose Transport inhibition 25 mM” value in data set [2] is 17.03%. In addition, in data set [3], the “SGLT1 inhibitory activity (in words)” value was “inhibition of SGLT1”, the “Class (assigned class of transporter inhibited)” value is listed as “SGLT1” and the “% Glucose Transport inhibition 5 mM” value turned out to be 44.09%.
For `O=C1CC(c2ccc(O)cc2)Oc2cc(O[C@@H]3O[C@H](CO)[C@@H](O)[C@H](O)[C@H]3O)cc(O)c21` (some centres unmarked) [Naringenin-7-O-glucoside], in data set [1], the μM substrate hydrolysed/hr was 1.564 μM substrate hydrolysed/hr. The “Resistance to hydrolysis-% Q4G” value in data set [1] (listed as N7G) is 49.5% and 49.52%. Moreover, the “% Glucose Transport inhibition 25 mM” value in data set [2] worked out at 0.06%. Moreover, in data set [3], the “SGLT1 inhibitory activity (in words)” value is “inhibition of SGLT1” and the “Class (assigned class of transporter inhibited)” value was “SGLT1”.
